{"source": "patent US20230110899A1", "about": "“NOVEL COMPOSITIONS FOR TREATMENT OF CORONAVIRUS DISEASE” (priority 2020, published 2023)", "key": {"[1]": {"system": "MERS-CoV clinical isolate", "conditions": "viral spike (S) protein expression, infected Vero cells, IFA; read-out: 50% inhibitory concentration (IC50); cited from earlier work"}, "[2]": {"system": "Zika virus", "conditions": "in vitro, by targeting nonstructural protein 5; cited from earlier work"}, "[3]": {"system": "LPS induced ARDS mouse model", "assay": "LPS induced ARDS mouse model (tracheal instillation of 60 μg of LPS), oral and inhaled", "assay_type": "in vivo, C57BL/6 mice", "conditions": "for blood oxygen saturation (SpO2): 72 h; for blood reticulocyte count: vs LPS negative control"}, "[4]": {"system": "SARS-CoV-2 coronavirus", "assay": "SARS-CoV-2 plaque reduction assay in Vero E6 cells", "assay_type": "cell-based", "conditions": "for Mean PFU/well: n=3"}, "[5]": {"assay": "Plasma and lung fenretinide exposure, oral and inhaled (Example 3)", "assay_type": "in vivo, C57BL/6 mice", "conditions": "nebulization of 0.65 mg/mL for 30 or 60 min; calculated, confirmed by analysis of lung tissue"}, "[6]": {"system": "Dengue infection", "conditions": "lethal mouse model; cited from earlier work"}, "[7]": {"system": "adult CF patients experiencing pulmonary exacerbation", "conditions": "cited from earlier work"}, "[8]": {"system": "allergen-sensitized mice", "conditions": "mouse, in vivo; cited from earlier work"}, "[9]": {"target": "T1, cytosolic phospholipases (cPLA2) (Homo sapiens, UniProt P47712)", "T1 sequence (P47712 1-749)": "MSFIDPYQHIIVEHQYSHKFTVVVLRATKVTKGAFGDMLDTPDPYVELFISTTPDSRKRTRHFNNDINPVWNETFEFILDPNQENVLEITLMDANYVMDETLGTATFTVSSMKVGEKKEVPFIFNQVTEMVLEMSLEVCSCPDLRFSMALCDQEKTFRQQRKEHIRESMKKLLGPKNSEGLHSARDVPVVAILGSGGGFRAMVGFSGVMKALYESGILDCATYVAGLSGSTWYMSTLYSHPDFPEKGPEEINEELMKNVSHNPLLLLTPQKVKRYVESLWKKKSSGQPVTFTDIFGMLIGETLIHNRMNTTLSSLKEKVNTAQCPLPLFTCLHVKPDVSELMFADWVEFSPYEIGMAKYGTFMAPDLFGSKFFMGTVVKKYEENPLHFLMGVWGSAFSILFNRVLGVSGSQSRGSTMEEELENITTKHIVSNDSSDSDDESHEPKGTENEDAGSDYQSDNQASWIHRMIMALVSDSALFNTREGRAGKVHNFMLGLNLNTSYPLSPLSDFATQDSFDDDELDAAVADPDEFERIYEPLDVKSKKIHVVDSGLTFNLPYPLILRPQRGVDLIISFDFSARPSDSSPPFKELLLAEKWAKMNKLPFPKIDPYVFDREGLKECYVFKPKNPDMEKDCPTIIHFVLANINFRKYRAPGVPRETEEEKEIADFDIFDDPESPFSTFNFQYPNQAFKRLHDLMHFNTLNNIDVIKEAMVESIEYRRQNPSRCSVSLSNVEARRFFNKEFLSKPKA", "conditions": "cited from earlier work"}, "[10]": {"system": "ERK1/2", "conditions": "macrophages pretreated prior to S. suis infection, vs nontreated infected macrophages; cited from earlier work"}, "[11]": {"system": "Pseudomonas aeruginosa", "conditions": "Cftr.KO mice; cited from earlier work"}, "[12]": {"system": "Dengue", "conditions": "cited from earlier work"}, "[13]": {"system": "Streptococcus suis", "conditions": "acute S. suis infection; cited from earlier work"}, "[14]": {"system": "Spinal Cord Injury (SCI)", "conditions": "oral administration; cited from earlier work"}, "[15]": {"system": "Vero E6 cells", "conditions": "up to 40 μM concentrations"}, "[16]": {"conditions": "inhaled fenretinide 1.8 μg/kg, 72 hours"}, "[17]": {"conditions": "inhaled fenretinide 3.6 μg/kg, 72 hours"}}, "note": "Values joined by “and” are separate entries in the source; they are usually repeats but may differ in a detail not shown here. Identical values can stand only once."}
{"smiles": "CC1=C(/C=C/C(C)=C/C=C/C(C)=C/C(=O)Nc2ccc(O)cc2)C(C)(C)CCC1", "note": "[Fenretinide, 4-hydroxyphenyl retinamide]", "values": [{"measurement": "IC50", "setting": "[1]", "value": 2.8, "unit": "µM"}, {"measurement": "activity against Zika virus", "setting": "[2]", "value": "potent activity"}, {"measurement": "blood oxygen saturation (SpO2)", "setting": "[3]; inhaled fenretinide 1.8 μg/kg", "value": "partially, but significantly, alleviated the reduction of blood oxygen saturation"}, {"measurement": "lung protein concentration", "setting": "[3]; [16]", "value": "reduced the lung protein concentration"}, {"measurement": "blood reticulocyte count", "setting": "[3]; [16]", "value": "significantly increased reticulocyte counts"}, {"measurement": "myeloperoxidase (MPO) activity in the BALF", "setting": "[3]; inhaled fenretinide 1.8 μg/kg, 72 hours, statistically significant vs negative control", "value": "reduced MPO activity"}, {"measurement": "blood oxygen saturation (SpO2)", "setting": "[3]; inhaled fenretinide 3.6 μg/kg", "value": "partially, but significantly, alleviated the reduction of blood oxygen saturation"}, {"measurement": "lung protein concentration", "setting": "[3]; [17]", "value": "reduced the lung protein concentration"}, {"measurement": "blood reticulocyte count", "setting": "[3]; [17]", "value": "significantly increased reticulocyte counts"}, {"measurement": "IC50", "setting": "[4]; Severe acute respiratory syndrome coronavirus 2, Vero C1008, linear regression analysis (FIG. 1), R2=0.92, read-out: IC50, 50% inhibition of virus survival", "value": 1.57, "unit": "µM"}, {"measurement": "% survival", "setting": "[4]; fenretinide 0.625 μM", "value": 80.5, "unit": "%"}, {"measurement": "Plaque forming unit counts, Wells 1-3 (individual counts/well)", "setting": "[4]; fenretinide 0.625 μM", "value": "21 and 19 and 22"}, {"measurement": "Mean PFU/well", "setting": "[4]; fenretinide 0.625 μM", "value": 20.7, "unit": "PFU/well"}, {"measurement": "% survival", "setting": "[4]; fenretinide 1.25 μM", "value": 75.3, "unit": "%"}, {"measurement": "Plaque forming unit counts, Wells 1-3 (individual counts/well)", "setting": "[4]; fenretinide 1.25 μM", "value": "14 and 31 and 13"}, {"measurement": "Mean PFU/well", "setting": "[4]; fenretinide 1.25 μM", "value": 19.3, "unit": "PFU/well"}, {"measurement": "% survival", "setting": "[4]; fenretinide 2.5 μM", "value": 24.7, "unit": "%"}, {"measurement": "Plaque forming unit counts, Wells 1-3 (individual counts/well)", "setting": "[4]; fenretinide 2.5 μM", "value": "6 and 3 and 10"}, {"measurement": "Mean PFU/well", "setting": "[4]; fenretinide 2.5 μM", "value": 6.3, "unit": "PFU/well"}, {"measurement": "% survival", "setting": "[4]; fenretinide 5 μM", "value": 0.0, "unit": "%"}, {"measurement": "Plaque forming unit counts, Wells 1-3 (individual counts/well)", "setting": "[4]; fenretinide 5 μM", "value": 0}, {"measurement": "Mean PFU/well", "setting": "[4]; fenretinide 5 μM", "value": 0.0, "unit": "PFU/well"}, {"measurement": "effective fenretinide dose delivered to the lungs (local lung concentration)", "setting": "[5]", "value": "1 to 3", "unit": "µM"}, {"measurement": "protection against Dengue infection", "setting": "[6]", "value": "can protect against Dengue infection"}, {"measurement": "plasma levels of IL-6, IL-8, IL-10 and neutrophils count", "setting": "[7]; at the onset of the PEx episode", "value": "appeared to improve"}, {"measurement": "lipidomic markers", "setting": "[7]; subgroup with pulmonary exacerbation (PEx)", "value": "normalized the lipidomic markers in a dose-response manner"}, {"measurement": "infiltration of inflammatory cells to the airways", "setting": "[8]", "value": "complete block of infiltration of inflammatory cells to the airways"}, {"measurement": "activity of cytosolic phospholipases (cPLA2)", "setting": "[9]", "value": "inhibits the activity of cytosolic phospholipases"}, {"measurement": "ERK1/2 activation", "setting": "[10]", "value": "significant reduction in ERK1/2 activation"}, {"measurement": "pulmonary load of Pseudomonas aeruginosa", "setting": "[11]", "value": "significant decrease in the pulmonary load of Pseudomonas aeruginosa"}, {"measurement": "antiviral activity against Dengue fever disease", "setting": "[12]", "value": "potent antiviral activity"}, {"measurement": "survival", "setting": "[13]", "value": "significantly improved their survival"}, {"measurement": "locomotor recovery", "setting": "[14]", "value": "improved locomotor recovery"}]}
{"smiles": "CCC(CC)COC(=O)[C@H](C)N[P@](=O)(OC[C@H]1O[C@@](C#N)(c2ccc3c(N)ncnn23)[C@H](O)[C@@H]1O)Oc1ccccc1", "note": "[Remdesivir]", "values": [{"measurement": "% virus survival", "setting": "[4]; remdesivir 0.625 μM", "value": 90.9, "unit": "%"}, {"measurement": "Plaque forming unit counts, Wells 1-3 (individual counts/well)", "setting": "[4]; remdesivir 0.625 μM", "value": "25 (2×) and 20"}, {"measurement": "Mean PFU/well", "setting": "[4]; remdesivir 0.625 μM", "value": 23.3, "unit": "PFU/well"}, {"measurement": "% virus survival", "setting": "[4]; remdesivir 1.25 μM", "value": 42.9, "unit": "%"}, {"measurement": "Plaque forming unit counts, Wells 1-3 (individual counts/well)", "setting": "[4]; remdesivir 1.25 μM", "value": "10 and 11 and 12"}, {"measurement": "Mean PFU/well", "setting": "[4]; remdesivir 1.25 μM", "value": 11.0, "unit": "PFU/well"}, {"measurement": "Plaque forming unit counts, Wells 1-3 (individual counts/well)", "setting": "[4]; remdesivir 2.5 μM", "value": "5 (2×) and 2"}, {"measurement": "Mean PFU/well", "setting": "[4]; remdesivir 2.5 μM", "value": 4.0, "unit": "PFU/well"}, {"measurement": "% virus survival", "setting": "[4]; remdesivir 5 μM", "value": 2.6, "unit": "%"}, {"measurement": "Plaque forming unit counts, Wells 1-3 (individual counts/well)", "setting": "[4]; remdesivir 5 μM", "value": "1 (2×) and 0"}, {"measurement": "Mean PFU/well", "setting": "[4]; remdesivir 5 μM", "value": 0.7, "unit": "PFU/well"}, {"measurement": "% virus survival", "setting": "[4]; remdesivir 10 μM", "value": 0, "unit": "%"}, {"measurement": "Plaque forming unit counts, Wells 1-3 (individual counts/well)", "setting": "[4]; remdesivir 10 μM", "value": 0}, {"measurement": "Mean PFU/well", "setting": "[4]; remdesivir 10 μM", "value": 0.0, "unit": "PFU/well"}, {"measurement": "% virus survival", "setting": "[4]; remdesivir 20 μM", "value": 0.0, "unit": "%"}, {"measurement": "Plaque forming unit counts, Wells 1-3 (individual counts/well)", "setting": "[4]; remdesivir 20 μM", "value": 0}, {"measurement": "Mean PFU/well", "setting": "[4]; remdesivir 20 μM", "value": 0.0, "unit": "PFU/well"}, {"measurement": "% virus survival", "setting": "[4]; remdesivir 40 μM", "value": 0.0, "unit": "%"}, {"measurement": "Plaque forming unit counts, Wells 1-3 (individual counts/well)", "setting": "[4]; remdesivir 40 μM", "value": 0}, {"measurement": "Mean PFU/well", "setting": "[4]; remdesivir 40 μM", "value": 0.0, "unit": "PFU/well"}, {"measurement": "cytopathic effect", "setting": "[15]", "value": "No cytopathic effect"}]}
